Measurements: ChEMBL document CHEMBL3507680, “University of Dundee, Gates Library screen for HepG2 cell viability”

Assay: Human HepG2 cell viability assay in 384 well format
Type: toxicity, cell-based
Design: dose 125 nL, time 70.5 hour; concentration not given beside the values
Conditions: HepG2 cells, read-out: Inhibition

| Compound | cytotoxicity at 70.5 h [%] |
| --- | --- |
| CNS(=O)(=O)c1cccc(C(C)NCc2ccncc2)c1 (centres undefined) | -2.51 |
| COCc1nc2cc(NCc3sc(C)nc3C)ccc2o1 | -4.53 |
| CNC(=O)C(NC(C)=O)c1ccc(F)c(F)c1 (centres undefined) | -1.65 |
| O=C(C1SCCc2sccc21)N1CCCCC1 (centres undefined) | -6.95 |
| O=C(C1SCCc2sccc21)N1CC(O)C1 (centres undefined) | -5.69 |
| O=C(NCC1(C(=O)O)CCC1)c1nnn(-c2ccc(F)cc2)c1C1CC1 | 11.7 |
| CNS(=O)(=O)c1cccc(C(C)NCc2ccsc2)c1 (centres undefined) | -0.542 |
| Cc1ccc(C(CNCc2nccn2C)N2CCOCC2)s1 (centres undefined) | -2.09 |
| CCn1ccnc1CNCC(c1ccc(C)s1)N1CCOCC1 (centres undefined) | -7.92 |
| CNS(=O)(=O)c1cccc(C(C)NCc2ccc(F)cc2F)c1 (centres undefined) | -9.82 |
| CN(C(=O)CN1CCCC1Cc1ccccc1)c1ccccc1 (centres undefined) | -7.08 |
| CCCC(C)C(=O)Nc1ccc(OC)nc1N1CCN(C(C)=O)CC1 (centres undefined) | -6.89 |
| OC(CN1CC(n2cccn2)C1)c1ccc2c(c1)OCCO2 (centres undefined) | -3.2 |
| Cc1ccoc1CNCc1nnc2n1CCCC2C(F)(F)F (centres undefined) | -3.7 |
| O=C(CCn1cccn1)NCC(c1cccs1)N1CCCC1 (centres undefined) | -5.3 |
| CC1CCN(C(CNC(=O)Cn2cccn2)c2cccs2)CC1 (centres undefined) | -7.96 |
| NS(=O)(=O)CCNC(=O)c1cc(Br)c2c(c1)OCCO2 | -10.7 |
| NC(=O)CCCNC(=O)c1cc(Br)c2c(c1)OCCO2 | -10.4 |
| CC(CC(=O)Nc1ncn(CC(=O)NCc2ccccc2)n1)C1CC1 (centres undefined) | -14.7 |
| COC(=O)CCNC(=O)c1cc(Br)c2c(c1)OCCO2 | -10.5 |
| Cc1cnn(Cc2cc(F)ccc2F)c1NC(=O)CNC(=O)C1CC1 | 1.15 |
| CCN(CC)C(=O)CCCNC(=O)Cc1nc(-c2ccco2)oc1C | -12.3 |
| CCOCCCNC(=O)c1cc(Br)c2c(c1)OCCO2 | -8.79 |
| CCC(=O)NCC(=O)Nc1c(C)cnn1Cc1cc(F)ccc1F | -5.16 |

| Compound | cytotoxicity at 70.5 h [%] |
| --- | --- |
| CC(=O)Cn1cc(C#N)c(=O)c2cc(Br)ccc21 | -13.6 |
| N#CCCCn1nnc(C2(NC(=O)c3ccccc3)CCCC2)n1 | -1.12 |
| CCc1nc2n(n1)CCCC2Nc1nc(C(C)C)ns1 (centres undefined) | -9.57 |
| COCc1nc2n(n1)CCCC2Nc1nc(C)ns1 (centres undefined) | 24.4 |
| CC(C)CS(=O)(=O)CC(=O)N1CCCC1c1noc(C2CC2)n1 (centres undefined) | -8.35 |
| COc1cccc(CN(C)C(=O)CN2CCN(c3nccs3)CC2)c1 | -9.6 |
| O=C(CN1CCOC(c2ccc(Cl)s2)C1)NCc1ccco1 (centres undefined) | 17 |
| COc1ccc(C(O)CN2CC(n3cc(C)cn3)C2)cc1 (centres undefined) | -8.25 |
| Cc1cc(C2CN(CC(=O)NCc3ccco3)CCO2)ccc1F (centres undefined) | -11.9 |
| O=c1oc(-c2cccs2)nn1CC(O)c1ccc2c(c1)CCC2 (centres undefined) | 14.5 |
| CCc1sc(C(=O)NC2CC2)cc1C | 8.53 |
| CCCS(=O)(=O)N1CCC(NC(=O)c2cc(CC)c(C)s2)CC1 | -0.636 |
| CC(=O)NCCC(=O)NCc1cc(Br)ccc1OC(F)F | -7.14 |
| NC(=O)C1CCCN1Cc1cccc(NC(=O)c2ccc(Cl)cc2F)c1 (centres undefined) | -20.5 |
| COC(=O)CCSc1nncn1-c1ccc(OC)nc1 | 4.09 |
| CCc1nc(CCNC(=O)Nc2cccc(C(=O)NC)c2C)cs1 | 9.84 |
| Cc1cccc(NC(=O)[C@@H]2CCCN2Cc2ccccc2C#N)n1 | -10.3 |
| CSCC(=O)NCc1cc(Br)ccc1OC(F)F | -5.17 |
| CC(C)C(=O)NC1CCN(c2cccc(OC(F)(F)F)c2)C1=O (centres undefined) | 8.86 |
| Cc1cc(S(=O)(=O)N2CCCc3cc(Br)ccc32)sc1C(=O)O | -6.91 |
| CCC(CC)NC(=O)CN1CCN(C(=O)N(C)C)CC1 | -0.0942 |
| CC(NC(=O)C1CCN(S(N)(=O)=O)CC1)c1cccc(OC(F)F)c1 (centres undefined) | -1.7 |
| Cc1ccc(C(=O)N(C)Cc2c(C)noc2C)c(=O)[nH]1 | -0.278 |
| O=C(Nc1ccc(F)cc1)C1CCc2ccccc2N1 (centres undefined) | -1.61 |

| Compound | cytotoxicity at 70.5 h [%] |
| --- | --- |
| CC(=O)N(C)CC(=O)NCC1(c2cccc(C)c2)CCCC1 | 1.29 |
| CCOCCNC(=O)c1ccn(S(=O)(=O)c2ccc(C)cc2)c1 | -2.02 |
| Cc1nc2n(n1)CC(NCC(=O)NCCC1=CCCCC1)CC2 (centres undefined) | 0.305 |
| Cc1ccc(S(=O)(=O)n2ccc(C(=O)NCC(F)(F)F)c2)cc1 | 1.3 |
| CCc1ncc2c(n1)CN(C(C)C(=O)N1CCOCC1)CC2 (centres undefined) | 17 |
| CC1(C(=O)NCCN2CCCCC2)CCCN1C(=O)c1ccccc1 (centres undefined) | -3.21 |
| Cn1c(CCNc2nccnc2C#N)nc2cc(Cl)ccc21 | -0.473 |
| Cn1c(CCCNc2nccnc2C#N)nc2ccccc21 | 1.96 |
| CCC(CNC(=O)c1nc(=O)[nH][nH]1)Oc1ccccc1C(F)(F)F (centres undefined) | 1.22 |
| Cc1nc(NC(=O)NCc2nc3cccc(C)c3n2C)oc1C | 13.5 |
| CSCCN(C)C(=O)C1(c2ccc(F)cc2F)CCOCC1 | -0.975 |
| CCc1nnc(C(C)N(C)Cc2c(C)nn(-c3ccccc3)c2C)o1 (centres undefined) | -1.32 |
| CC(NCC1CCN(CCO)CC1)c1cccc(Cl)c1 (centres undefined) | -2.07 |
| CC(NCC1CCN(CCO)CC1)c1ccc(Cl)cc1 (centres undefined) | 10.5 |
| CN(Cc1ccccc1NCc1cccnc1)C(=O)c1cccs1 | -2.02 |
| COc1ccc(C)cc1CN(Cc1ncc(C)o1)C1CCN(C)C1 (centres undefined) | 14.5 |
| CCOc1nnc(CN(Cc2ccccc2)CC(O)c2ccco2)s1 (centres undefined) | -10.6 |
| CN(Cc1ccc(Br)s1)Cn1nc(-c2ccc(F)cc2)oc1=O | -4.35 |
| O=C1NCCCCC1NS(=O)(=O)N1CCCCCC1 (centres undefined) | -13.8 |
| CC1CCN(S(=O)(=O)NC2CCCCNC2=O)CC1 (centres undefined) | -5.25 |
| CN(C(=O)c1ccc(C#N)cc1)C1CCN(c2ccccn2)CC1 | 12.7 |
| CN(C(=O)Nc1cccc(C#N)c1)C1CCN(c2ccccn2)CC1 | -8.89 |
| Cc1occc1C(=O)NC1CCN(C(=O)Nc2cccnc2)CC1 | -5.69 |
| Cc1ncc(CN(C)c2nc3c(cnn3C(C)(C)C)c(=O)[nH]2)s1 | 11.8 |

| Compound | cytotoxicity at 70.5 h [%] |
| --- | --- |
| Cn1nnc2cc(C(=O)NS(=O)(=O)Cc3ccc(F)cc3)ccc21 | -12.6 |
| Cc1cc(C(=O)N2CCC(NC(=O)c3cccnc3)CC2)c(C)o1 | -9.02 |
| CC1(C)CCC(CC(=O)O)c2ccccc21 (centres undefined) | -3.28 |
| CCC(Nc1ccc(Oc2ccc(C#N)cc2OC)cc1)C(N)=O (centres undefined) | 5.26 |
| Cc1nc(-c2ccsc2)ccc1C(=O)N1CCn2c(C)nnc2C1 | 11.2 |
| Cc1nc(C(NC(=O)C2CCCC2)c2ccccc2F)no1 (centres undefined) | -9.04 |
| O=C(Nc1ccc(F)cc1)NC1(CCO)CCOCC1 | -7.29 |
| OC[C@@H](O)CN(CCC(F)(F)F)c1ncc(Br)cn1 | 14.1 |
| COc1cc(S(=O)(=O)Nc2cn[nH]c2)ccc1Br | -12.7 |
| O=S(=O)(Nc1cn[nH]c1)c1ccc(Br)c(F)c1 | -2.34 |
| CCc1noc(CC)c1CNC(=O)Nc1ccc2[nH]nnc2c1 | -4.16 |
| COc1nc(C)ccc1CNC(=O)NC(C)(C)c1ncc(C)s1 | -5.61 |
| CN(CCOc1cccc(Cl)c1)Cc1nnc(C(C)(C)C)o1 | -2.27 |
| CC(C)C(=O)N1CCN(CCOc2cccc(C#N)c2)CC1 | -5.29 |
| Cc1nnc(CN(C)CCCOc2ccc(Cl)cc2)o1 | -10.2 |
| COCC(C)(CCO)NC(=O)Nc1cccc(Br)c1C (centres undefined) | 7.98 |
| COCCC(=O)N1CCCC1c1cccc(C)c1C (centres undefined) | 23.9 |
| CNS(=O)(=O)c1ccc(CNC(=O)c2ccccn2)cc1 | -9.5 |
| COc1cccc(CCNC(=O)CCS(=O)(=O)C2CCCC2)c1 | -12.4 |
| Cc1nn(-c2ccccc2)nc1C(=O)NCC(c1ccsc1)N(C)C (centres undefined) | 13.1 |
| Cc1cccc(CCNC(=O)CCS(=O)(=O)C2CCCC2)c1 | -5.57 |
| Cc1nnc2n1CCN(C(=O)c1cnc(C3CC3)s1)C2 | -2.96 |
| CS(=O)(=O)NC1CCN(CCc2ccccc2)CC1 | -9.51 |
| CC(NC(=O)Nc1nnc(-c2ccccn2)s1)C(=O)OC(C)(C)C (centres undefined) | -11.7 |

| Compound | cytotoxicity at 70.5 h [%] |
| --- | --- |
| Cc1noc(CS(=O)(=O)CC(=O)NC(C)c2ccccc2)n1 (centres undefined) | -12.5 |
| CC(C)OC(=O)CCNC(=O)Nc1cccc2ncccc12 | 8.18 |
| CCC(CC)(CC)NC(=O)Nc1nnc(-c2ccccn2)s1 | -13.2 |
| CCOc1cc(CNC(=O)c2cc(-c3ccccn3)no2)ccn1 | -6.7 |
| Cc1cccc(C2CCCN2C(=O)CN(C)S(C)(=O)=O)c1C (centres undefined) | -5.26 |
| CS(=O)(=O)CCSCc1ccc(Br)c(F)c1 | -1.55 |
| COCc1noc(-c2nn(-c3ccc(F)c(F)c3)c3c2CCC3)n1 | 26 |
| O=C(Nc1ccn(Cc2cccc3cccnc23)n1)C1COCCO1 (centres undefined) | -8.35 |
| Cc1nc(C2CCCC2)sc1C(N)=O | 12 |
| CS(=O)(=O)CCCSCc1cc(F)cc(Br)c1 | -4.67 |
| CC(C)NC(=O)CN(C)C1CCN(c2ccc(C#N)cn2)CC1 | 0.463 |
| CC(C)c1nsc(NC2CC(=O)N(C(C)(C)C)C2)n1 (centres undefined) | -8.61 |
| NC(=O)CCSCc1ccc(Br)c(F)c1 | -8.58 |
| CCNC(=O)N(C)CCCc1n[nH]c(N)c1C#N | 17.3 |
| COCc1noc(-c2nn(-c3ccc(F)cc3)c3c2CCC3)n1 | -8.74 |
| O=C(NC1CCN(c2cc(-n3ccnc3)ncn2)CC1)c1ccncc1 | -10.4 |
| Cc1cc2n(n1)CC(CNCCc1cnn(C)c1)CN2 (centres undefined) | 34.9 |
| Cc1ccc(OCCCNC(=O)Cc2nc3ncccn3n2)cc1 | -13.7 |
| O=C1NCCN1C1CCN(c2ccnc(-c3ccccc3)n2)CC1 | -7.99 |
| CC(C)Sc1ccc(C(C)NC(=O)CNS(C)(=O)=O)cc1 (centres undefined) | 17 |
| O=C(CCN1CCc2[nH]nc(C(F)(F)F)c2C1)Nc1ccccc1 | -2.13 |
| COc1ccc(CNC(C)c2ccccc2Cl)c(OC)c1OC (centres undefined) | 18.3 |
| Cc1cccc(NC(=O)C2CCc3ccccc3N2)c1 (centres undefined) | -0.623 |
